One assay has as its system K. pneum. 39645. Briefly: In vitro antibacterial activity, MIC (modified Autotiter method). The conditions noted are these: Klebsiella pneumoniae, 20 h, 18-20 hours at 37° C.; read-out: MIC K. pneum. 39645. The format is cell-based, Klebsiella pneumoniae. An outline of the steps:
(§1)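 Autotiter-based broth dilution, modified from Goss: 1,000 mcg./ml. stock, twofold steps in sterile water, then inoculated 2x semisynthetic medium (glucose) dispensed automatically. Final range 500–0.06 mcg./ml.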

The subject of another assay is S. Aureus Smith. The description is as above. The conditions noted are these: Staphylococcus aureus, 20 h, 18-20 hours at 37° C.; read-out: MIC S. Aureus Smith. The format is cell-based, Staphylococcus aureus. An outline of the steps:
as §1

Another assay concerns P. mirab. MGH-1. Described as above. It is filed as cell-based, Proteus mirabilis. The settings on record: 18-20 hours at 37° C.; for MIC: Proteus mirabilis, 20 h, read-out: MIC P. mirab. MGH-1. An outline of the steps:
as §1

The next assay concerns Ps. aerug. MGH-2. The assay is described as above. It is filed as cell-based, Pseudomonas aeruginosa. The conditions noted are these: Pseudomonas aeruginosa, 20 h, 18-20 hours at 37° C.; read-out: MIC Ps. aerug. MGH-2. An outline of the steps: as §1
The next assay deals with S. pyogen. C203. Described as above. It is filed as cell-based, Streptococcus pyogenes. The settings on record: 18-20 hours at 37° C.; for MIC: Streptococcus pyogenes, 20 h, read-out: MIC S. pyogen. C203. An outline of the steps: as §1
The subject of assay [1] is Herpes simplex type 2 virus. Briefly: Virucidal activity in vitro (plaque inhibition test). The settings on record: 2 mg. of test compound on growth medium. The format is cell-based. As to the method:
Virucidal activity of representative examples against Herpes simplex type 2 virus was determined in vitro employing a procedure similar to the plaque inhibition test for detection of specific inhibitors of DNA-containing viruses published by E. C. Herrmann, Jr., Proc. Soc. Exp. Biol. Med. 107, 142 (1961) wherein 2 mg. of the test compound was placed on the surface of the growth medium.

In the next assay the test system is E. Coli ATCC 8739. Briefly: Effect of serum on bacteriostatic activity (serial tube dilution test). It is filed as cell-based, Escherichia coli. The conditions noted are these: for Fold Increase in MIC E. Coli ATCC 8739: 40% vs 0% horse serum; for MIC: Escherichia coli, ATCC8739. The method, boiled down: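 Bacteriostatic potency against Escherichia coli ATCC 8739 was measured with the standard serial tube dilution test. Minimum inhibitory concentrations were determined in pairs, with the test medium either lacking serum or containing 40% horse serum heat-inactivated at 56° C. for 30 min. Serum impact was reported as the fold increase in MIC (mcg./ml.).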

For another assay, the system named is T. menta. 9129. Briefly: In vitro antifungal activity, MIC (modified Autotiter method). The conditions noted are these: 18-20 hours at 37° C.; for MIC: Trichophyton mentagrophytes, 20 h, read-out: MIC T. menta. 9129. It is filed as cell-based, Trichophyton mentagrophytes. The method, boiled down: as §1
The next assay deals with A. niger 16404. The assay is described as above. It is filed as cell-based, Aspergillus niger. The conditions noted are these: 18-20 hours at 37° C.; for MIC: Aspergillus niger, 16404, 20 h, read-out: MIC A. niger 16404. An outline of the steps: as §1
In another assay the test system is E. coli Vogel. Briefly: In vitro antibacterial activity, MIC (modified Autotiter method). It is filed as cell-based, Escherichia coli. The conditions noted are these: 18-20 hours at 37° C.; for MIC: Escherichia coli, 20 h, read-out: MIC E. coli Vogel. An outline of the steps: as §1
For a further assay, the system named is E. coli 100/B22. The assay is described as above. The format is cell-based, Escherichia coli. The conditions noted are these: for MIC E. coli 100/B22: 18-20 hours at 37° C.; for MIC: Escherichia coli, 100/B22, 20 h, read-out: MIC E. coli 100/B22, 18-20 hours at 37° C. The method, boiled down: as §1
Another assay concerns E. coli AB1932-1. The description is as above. It is filed as cell-based, Escherichia coli. The settings on record: 18-20 hours at 37° C.; for MIC: Escherichia coli, AB19321, 20 h, read-out: MIC E. coli AB1932-1. The method, boiled down:
as §1

Where [2] appears, read: 40% heat inactivated horse serum, read-out: MIC E. Coli ATCC 8739 40% Serum.
Where [3] appears, read: read-out: MIC E. Coli ATCC 8739 0% Serum.

Like-named read-outs stand apart in the source and are kept apart here.

For `CCCCCCCNc1cc[n+](CCCCCCCCCCCC[n+]2ccc(NCCCCCCC)cc2)cc1` [Example 3, 1,12-bis-[4-(heptylamino)-1-pyridinium]dodecane dibromide], the MIC was 3.13 mg/L with K. pneum. 39645; 0.39 mg/L in the assay on S. Aureus Smith; 3.13 mg/L in the assay on P. mirab. MGH-1; 6.25 mg/L in the assay with Ps. aerug. MGH-2; 25 mg/L with E. Coli ATCC 8739 (setting [2]); 0.78 mg/L in the assay with E. Coli ATCC 8739 (setting [3]). For the same compound, the “MIC S. pyogen. C203” value against S. pyogen. C203 came to 0.39 mg/L. Moreover, the “Virucidal activity against Herpes simplex type 2 virus” value (“Virucidal activity” below) in assay [1] is on record as “active”. The “Fold Increase in MIC E. Coli ATCC 8739” value in the assay with E. Coli ATCC 8739 was determined as 32 fold. Also, the “MIC T. menta. 9129” value against T. menta. 9129 worked out at 1.56 mg/L. In the assay with A. niger 16404, the “MIC A. niger 16404” value came to 3.13 mg/L. For the same compound, in the assay with E. coli Vogel, the “MIC E. coli Vogel” value was 1.56 mg/L. Also, the “MIC E. coli 100/B22” value with E. coli 100/B22 is 3.13 mg/L. Also, the “MIC E. coli AB1932-1” value against E. coli AB1932-1 was found to be 6.25 mg/L.

With `CCCCCCNc1cc[n+](CCCCCCCCCCCCCC[n+]2ccc(NCCCCCC)cc2)cc1` [Example 5C, 1,14-bis-[4-(hexylamino)-1-pyridinium]tetradecane dibromide], the MIC amounted to 0.76 mg/L in the assay with K. pneum. 39645; 0.38 mg/L in the assay with S. Aureus Smith; 6 mg/L in the assay with Ps. aerug. MGH-2; 1 mg/L in the assay on S. pyogen. C203; 25 mg/L in the assay on E. Coli ATCC 8739 (setting [2]); 0.78 mg/L in the assay on E. Coli ATCC 8739 (setting [3]). Also, the MIC is 0.76 mg/L in the assay with T. menta. 9129; 3 mg/L with A. niger 16404; 0.76 mg/L with E. coli Vogel; 0.76 mg/L in the assay with E. coli 100/B22; 0.76 mg/L in the assay on E. coli AB1932-1. Also, in the assay with P. mirab. MGH-1 (listed as SC), the “MIC P. mirab. MGH-1” value came to 1.5 mg/L. In assay [1], the “Virucidal activity” value is “active”. For the same compound, the “Fold Increase in MIC E. Coli ATCC 8739” value in the assay on E. Coli ATCC 8739 stood at 32 fold.

Take `CCCCCCCCNc1cc[n+](CCCCCCCC[n+]2ccc(NCCCCCCCC)cc2)cc1` [Example 11, 1,8-bis-[4-(octylamino)-1-pyridinium]octane dibromide]: the MIC amounted to 1.95 mg/L in the assay on K. pneum. 39645; 0.25 mg/L with S. Aureus Smith; 7.8 mg/L with P. mirab. MGH-1; 15.6 mg/L in the assay with Ps. aerug. MGH-2; 1 mg/L in the assay on S. pyogen. C203; 31.2 mg/L in the assay on E. Coli ATCC 8739 (setting [2]). The MIC with E. Coli ATCC 8739 (setting [3]) amounted to 0.5 mg/L; in the assay with T. menta. 9129 it was 0.5 mg/L; in the assay on A. niger 16404, 3.9 mg/L; in the assay with E. coli Vogel, 1 mg/L; in the assay on E. coli AB1932-1 it was 1 mg/L. In addition, the “Virucidal activity” value in assay [1] is on record as “active”. Further, the “Fold Increase in MIC E. Coli ATCC 8739” value with E. Coli ATCC 8739 is on record as 64 fold. Moreover, the “MIC E. coli 100/B22” value in the assay with E. coli 100/B22 is 1.95 mg/L.

With `CCCCCCCNc1cc[n+](CCCCCCCCC[n+]2ccc(NCCCCCCC)cc2)cc1` [Example 24, 1,9-bis-[4-(heptylamino)-1-pyridinium]nonane dibromide], the MIC with K. pneum. 39645 is 1.95 mg/L; in the assay on S. Aureus Smith, 0.25 mg/L; with Ps. aerug. MGH-2, 62.5 mg/L; in the assay with S. pyogen. C203 it was 0.5 mg/L; in the assay with E. Coli ATCC 8739 (setting [2]) it was 7.8 mg/L; in the assay on E. Coli ATCC 8739 (setting [3]) it was 0.25 mg/L. The MIC was found to be 0.5 mg/L in the assay with T. menta. 9129; 3.9 mg/L in the assay with A. niger 16404; 1 mg/L in the assay on E. coli Vogel; 1.95 mg/L in the assay on E. coli 100/B22; 1 mg/L with E. coli AB1932-1. Also, the “MIC P. mirab. MGH-1” value with P. mirab. MGH-1 turned out to be 15.6 mg/L. Further, the “Virucidal activity” value in [1] is recorded as “active”. Further, in the assay on E. Coli ATCC 8739, the “Fold Increase in MIC E. Coli ATCC 8739” value is given as 32 fold.

`CCCCC(CC)CNc1cc[n+](CCCCCCCCCC[n+]2ccc(NCC(CC)CCCC)cc2)cc1` (stereo not shown) [Example 58, 1,10-bis-[4-(2-ethylhexylamino)-1-pyridinium]decane dibromide]: the MIC amounted to 3 mg/L in the assay with K. pneum. 39645; 0.24 mg/L with S. Aureus Smith; 12.1 mg/L with P. mirab. MGH-1; 48.4 mg/L in the assay on Ps. aerug. MGH-2; 1.95 mg/L with S. pyogen. C203; 15.6 mg/L in the assay with E. Coli ATCC 8739 (setting [2]). Besides, the MIC came to 0.5 mg/L in the assay on E. Coli ATCC 8739 (setting [3]), 0.76 mg/L in the assay on T. menta. 9129, 1.5 mg/L in the assay with E. coli Vogel and 0.76 mg/L in the assay on E. coli 100/B22. Further, the “Virucidal activity” value in assay [1] is reported as “active”. For the same compound, in the assay on E. Coli ATCC 8739, the “Fold Increase in MIC E. Coli ATCC 8739” value is 32 fold. The “MIC A. niger 16404” value in the assay on A. niger 16404 amounted to 6.0 mg/L. In addition, the “MIC E. coli AB1932-1” value with E. coli AB1932-1 stood at 0.37 mg/L.

For the origin of these results see patent US4206215A, “Antimicrobial bis-[4-(substituted-amino)-1-pyridinium]alkanes” (Sterling Drug Inc., priority 1977, dated 1980).
